{"source": "paper PMC10861593", "about": "“Kisspeptin-10 binding to Gpr54 in osteoclasts prevents bone loss by activating Dusp18-mediated dephosphorylation of Src” (Nature Communications, 2024)", "molecules": {"B1": {"name": "mouse Gpr54^336–342 peptide (peptide, UniProt Q91V45 336-342, looked up)", "peptide": "RVCPCCR", "notes": "mouse Gpr54 (Kiss1 receptor), residues 336-342, said to correspond to the RxxPxxR motif; also called peptide of Gpr54^336–342 (RxxPxxR motif); source: synthetic peptide"}, "B2": {"name": "His-DUSP18 (enzyme, human, UniProt Q8NEJ0 1-188, looked up)", "chain": "MTAPSCAFPVQFRQPSVSGLSQITKSLYISNGVAANNKLMLSSNQITMVINVSVEVVNTLYEDIQYMQVPVADSPNSRLCDFFDPIADHIHSVEMKQGRTLLHCAAGVSRSAALCLAYLMKYHAMSLLDAHTWTKSCRPIIRPNSGFWEQLIHYEFQLFGKNTVHMVSSPVGMIPDIYEKEVRLMIPL", "notes": "full-length WT human DUSP18, in pMCSG7; In the SPR it is called 'DUSP18 protein'; removal of the tag is not mentioned; also called DUSP18 protein; WT-DUSP18; source: E. coli, purified; not shown: His, N-terminal, kept"}, "B3": {"name": "DUSP18 (C104S): enzymatically dead DUSP18 (C104S) mutant (protein)", "chain": "B2 chain with C104S", "modifications": "left off: Flag, C-terminal, kept", "notes": "enzymatically dead DUSP18 (C104S) mutant"}}, "key": {"Src / DUSP18 interaction": {"system": "Src / DUSP18 interaction", "assay": "Co-IP/IB: interaction of Src with DUSP18 in transfected 293T cells", "format": "cell-based", "experimental": "Anti-Flag IP derived from 293 T cells transfected with HA-Src and either DUSP18-Flag or DUSP18 (C104S)-Flag constructs with or without Kp-10 treatment for 20 min were lysed and subjected to anti-FLAG IP (b). Phosphatase reaction products using His-DUSP18 and His-DUSP18 (C104S) proteins purified from E. coli and SRC proteins purified from Sf9 insect cells (c) and quantification of protein levels (d). Anti-Src IP derived from RAW264.7 cells treated with or without Kp-10 treatment for 20 min were lysed and subjected to anti-Src IP (e) and quantification of protein levels (f). g, h Src and Dusp18 co-localization was analyzed by IF staining in primary pre-osteoclasts treated with 10 nM Kp-10 treatment for 20 min. Representative images of endogenous Dusp18 and Src were shown by TIRF microscopy (g), and MOC was used to quantify the degree of colocalization in cells from multiple images taken randomly (h). Scale bar, 50 µm. i–m IB and quantification of protein levels analysis. Anti-Flag IP derived from 293 T cells transfected with HA-Src, GPR54-myc, and either DUSP18-Flag or DUSP18 (C104S)-Flag constructs after Kp-10 treatment for 20 min (i) and quantification of protein levels (j, k). […] Scale bars, 125 µm (n), and pits depth were quantified by confocal microscopy (o). […] P values were determined by one-way ANOVA analysis (d, f, j, k, m, o) or by two-tailed Student’s t-test (h). […]"}, "GPR54 / Src interaction": {"system": "GPR54 / Src interaction", "assay": "Co-IP: interaction of GPR54 with Src in transfected 293T cells", "format": "cell-based, human", "conditions": "inhibitor 1 h (U73122 10 µM, Staurosporine 0.25 µM, LY3214996 10 µM, KN-93 10 µM, Saracatinib 10 µM), then 10 nM Kp-10 20 min", "experimental": "(§1) Data represent means ± SEM. P values were determined by one-way ANOVA analysis (b, c, e, g, i, k). Representative results were obtained from at least three independent experiments. Source data are provided as a Source Data file.\n(§2) Whole-cell proteins were extracted using 1x RIPA buffer (25 mM Tris, pH7.5, 150 mM NaCl, 0.5% Sodium deoxycholate, 1% Triton-X-100) supplemented with protease inhibitors (Complete Mini, Roche) and phosphatase inhibitors (phosphatase inhibitor cocktail set I and II, Calbiochem). Immunoprecipitation and immunoblotting with indicated antibodies were performed as described in Supplementary Table 1. Image Jsoftware (V1.52) was used for quantification analysis. Uncropped and unprocessed blots are presented in the Supplementary Information file.\nError bars are ± SEM. […] Source data are provided as a Source Data file."}, "[1]": {"system": "DUSP18 / GPR54 interaction", "assay": "Co-IP: interaction of DUSP18 with GPR54 in transfected 293T cells", "format": "cell-based, human", "conditions": "293T; inhibitor 1 h (U73122 10 µM, Staurosporine 0.25 µM, LY3214996 10 µM, KN-93 10 µM, Saracatinib 10 µM), then 10 nM Kp-10 20 min", "experimental": "as §1, §2\nSupplementary Fig. 6 a, b IB and quantification of protein levels analysis. […] Error bars are ± SEM. P-values were determined by two-tailed Student’s t-test (b, e) or by one-way ANOVA analysis (h, j). *P <0.05, **P <0.01, ***P <0.001, ****P <0.0001. Representative results were observed from at least three independent experiments. Source data are provided as a Source Data file."}, "SH3 domain of Src": {"system": "SH3 domain of Src", "assay": "SH3 domain protein-binding array", "conditions": "TranSignal SH3 Domain Array, GST-GPR54 CT overnight at 4 °C", "experimental": "SH3 domain protein-binding array was performed using TranSignal™ SH3 Domain Array kit (Cat. #MA3010). The kit was purchased from Panomics, and probed using GST-GPR54 CT. Purified different SH3 domain-containing proteins including the Src kinase family were spotted in duplicate on the membrane filter and tested for their binding to GST-GPR54 CT. Briefly, membrane filters were incubated with […] GST-GPR54 CT protein overnight at 4 °C. After washing the membrane, the GST antibody was incubated overnight at 4 °C. Protein binding was visualized by incubation with an HRP-conjugated antibody. Spots with stronger intensities indicated a higher binding affinity of GST-GPR54 CT with the SH3 domain-containing protein (s). SH3 domain proteins in the array were summarized in Supplementary Table 3."}, "Dusp18 expression": {"system": "Dusp18 expression", "assay": "qPCR of Dusp18 mRNA in RAW264.7 cells", "format": "cell-based, mouse", "conditions": "U73122 10 µM, Staurosporine 0.25 µM, LY3214996 20 µM, SB203580 10 µM for 1 h, then Kp-10 30 min", "source_text": "Anti-Flag IP of lysates derived from 293 T cells transfected with GPR54-flag and Src-HA constructs (d) and quantification results (e). Anti-Flag IP of lysates derived from 293 T cells transfected with GPR54-flag and DUSP18-HA constructs (f) and quantification results (g). Anti-Flag IP of lysates derived from 293 T cells transfected with Src-HA, and DUSP18-flag constructs (h) and quantification results (i). j, k IB analysis of lysates derived from WT BMMs and Gq/11 KO BMMs with or without Kp-10 treatment for 1 h (j) and quantification of results (k). l Working model of Kp-10 /Gpr54 mediated Src dephosphorylation. […] However, both active Src and DUSP18 were recruited by GPR54 through the PR motif in GPR54 CT along with the increase of Kp-10 dose (1, 10 nM). […] Data represent means ± SEM. P values were determined by one-way ANOVA analysis (b, c, e, g, i, k). Representative results were obtained from at least three independent experiments. Source data are provided as a Source Data file.\nTotal RNA was extracted from RAW264.7 cells using TRIzol® (TaKaRa) and then reverse transcribed into cDNA using the PrimeScript RT-PCR Kit (TaKaRa, RR014) according to the manufacturer’s instructions. The cDNA products were used for quantitative PCR analysis by SYBR Mix (TaKaRa, RR064). Sequences of the indicated primers are described in Supplementary Table 2."}, "His-DUSP18": {"target": "B2", "assay": "SPR; Biacore T200, DUSP18 protein immobilised on CM5 by amine coupling (25 ug/mL, pH 7.4, PBS); 25 °C, 30 µl/minute, PBS with 0.05% Tween-20; kinetics analysis, 1:1 model", "conditions": "both partners purified"}, "[2]": {"target": "T1, His-SRC protein, Src (G85-L536) (human, UniProt P12931 85-536)", "T1 construct": "human Src, G85-L536, in pFastBac HT B; In the SPR it is called 'SRC protein'; removal of the tag is not mentioned; source: Sf9 (Bac-to-Bac baculovirus), purified; not shown: His6, N-terminal, kept", "assay": "SPR; Biacore T200, DUSP18 and Src; which of the two was immobilised is not told; 25 °C, 30 µl/minute, PBS with 0.05% Tween-20; kinetics analysis, 1:1 model", "conditions": "both partners purified"}, "Src (Y416)": {"system": "Src (Y416)", "assay": "in vitro phosphatase activity assay with Src", "format": "biochemical, human", "conditions": "purified proteins; 30 min at 30 °C; Western blot", "experimental": "The C terminus of human GPR54 (H329- L398) and mouse Gpr54 (R331- L396) cDNAs were subcloned into a pGEX-4T2 vector. For purification of full-length WT human DUSP18 and DUSP18 (C104S) proteins, DUSP18 was cloned into pMCSG7 vector. For purification of Src (G85-L536) protein, cDNAs of human Src were subcloned into pFastBac HT B vector with an N-terminal 6xHis tag and expressed in Sf9 cells (Expression Systems) using the Bac-to-Bac Baculovirus Expression System (Invitrogen) for 48 h. For purification of the Src (G85-V247)-GPR54 (333–356 with C338S, C340S mutation) recombinant fusion protein, the C-terminus of GPR54 (333–356 with C338S and C340S mutation) was linked to the C terminus of Src SH3-SH2 domain (G85-V247), which was subcloned into the pMCSG7 vector.\nFor the total phosphatase activity assay, the Co-IP experiment was carried out after Kp-10 treatment of RAW264.7 cells for 20 min, followed by lysis and incubation with the Gpr54 antibody. The assay was performed according to the phosphatase assay kit (Sigma-Aldrich,17-313). For the DUSP18 phosphatase activity assay, His-DUSP18 and His-DUSP18 (C104S) were purified from E Coli, and His-Src was purified from Sf9 insect cells. His-DUSP18 and His-DUSP18 (C104S) were incubated with His-Src in 1x phosphatase buffer (20 mM HEPES, 20 mM MgCl2, 0.03% β-mercaptoethanol)[51] for 30 min at 30 °C with gentle shaking. […]"}}, "note": "Numbering of substitutions follows the chain as printed. Names may count otherwise."}
{"molecule": "CN1CCN(CCOc2cc(OC3CCOCC3)c3c(Nc4c(Cl)ccc5c4OCO5)ncnc3c2)CC1", "note": "[Saracatinib]", "values": [{"measurement": "effect on Kp-10 induced interaction of Src with DUSP18", "setting": "Src / DUSP18 interaction; 293T, inhibitor 1 h (U73122 10 µM, Staurosporine 0.25 µM, LY3214996 10 µM, KN-93 10 µM, Saracatinib 10 µM), then 10 nM Kp-10 20 min", "result": "obvioulsly dampened"}, {"measurement": "effect on Kp-10 induced interaction of GPR54 with Src", "setting": "GPR54 / Src interaction", "result": "obvioulsly dampened"}, {"measurement": "effect on Kp-10 induced interaction of GPR54 with DUSP18", "setting": "[1]", "result": "obvioulsly dampened"}]}
{"molecule": "GPR54 CT: C terminus of human GPR54 (H329- L398)", "values": [{"measurement": "interaction with SH3 domains", "setting": "SH3 domain of Src", "result": "interacted with the SH3 domain of Src most obviously"}]}
{"molecule": "CN[C@@H]1C[C@H]2O[C@@](C)([C@@H]1OC)n1c3ccccc3c3c4c(c5c6ccccc6n2c5c31)C(=O)NC4", "note": "[Staurosporine]", "values": [{"measurement": "effect on Kp-10 induced interaction of GPR54 with Src", "setting": "GPR54 / Src interaction", "result": "not by the inhibitors"}, {"measurement": "expression of Dusp18 (mRNA)", "setting": "Dusp18 expression", "result": "inhibited"}]}
{"molecule": "Cn1nccc1Nc1nccc(-c2cc3c(s2)C(C)(C)N(CCN2CCOCC2)C3=O)n1", "note": "[LY3214996]", "values": [{"measurement": "effect on Kp-10 induced interaction of GPR54 with Src", "setting": "GPR54 / Src interaction", "result": "not by the inhibitors"}, {"measurement": "expression of Dusp18 (mRNA)", "setting": "Dusp18 expression", "result": "inhibited"}]}
{"molecule": "B1", "values": [{"measurement": "Kd", "setting": "His-DUSP18", "result": 1800, "unit": "nM"}]}
{"molecule": "B2", "values": [{"measurement": "Kd", "setting": "[2]", "result": 5.9, "unit": "nM"}]}
{"molecule": "B3", "values": [{"measurement": "interaction with Src by Co-IP", "setting": "Src / DUSP18 interaction; anti-Flag IP, 293T cells transfected with HA-Src", "result": "eliminated the interaction with Src"}, {"measurement": "dephosphorylation of Src (Y416)", "setting": "Src (Y416)", "result": "had no activity"}]}
